Laboratory results taken from patent US20050119224A1, “Use of n-acetyl-d-glucosamine in the manufacture of pharmaceutical useful for adjuvant treatment of perianal disease” (priority 2001, published 2005).

How the values were obtained:
[1] = system: liver lysosome membrane; test: Test of stabilizing lysosome membrane (rat model of endotoxin shock); assay type: in vivo, wistar rat; settings: rat with endotoxin shock, versus saline control
Excerpt: • 1. Animals: wistar rat, provided by the 3rd Military Medical University P.R. China. • 2. Method: setting up a rat model of endotoxin shock, at the same time, for the liver lysosome of rat, carry out a test of stabilizing membranes in vivo and in vitro. The model animals were divided into two groups, in the experimental group, N-acetyl-D-glucosamine was used to carry out the treatment, in the control group, saline solution was used to carry out the same treatment. The condition of liver lysosome mambrane was reflected by the activity of acidic phosphatase (ACP). • 3. Result: the activity of free ACP in the control group and that in the experimental group are obviously different. • 4. […] V. Human on Trial

[2] = Human on trial (clinic test, peri-anal diseases); assay type: in vivo; settings: pharmaceutical preparations made from the compound, humans suffering from peri-anal diseases
[3] = system: Pseudomonas aeruginosa; test: Test of resistance to field planting (Pseudomonas aeruginosa planting model); assay type: in vivo, Mice of Kunming Species; settings: three dosages (high, middle, low), infused abdominally each day, feces culture
Excerpt: 1. Animal: Mice of Kunming Species, Provided by the 3rd Military Medical University P.R. China.
Firstly, the animals used for experiment were infused abdominally with a suspension of Pseudomonas aeruginosa so as to make a Pseudomonas aeruginosa planting model, the mice that have Pseudomonas aeruginosa in the feces specimen cultured continuously for three days are deemed as positive. 32 mices which were positive in the experiment for making model were selected and divided into four groups, that is, three experimental groups with different dosages and one control group, eight mice in each group. The experimental groups are infused abdominally with N-acetyl-D glucosamine each day according to a schedule, while the control group is infused with saline solution. Cultivate the excrement every day, observe the saturation of Pseudomonas aeruginosa planting growth.

## CC(=O)N[C@@H]1[C@@H](O)[C@H](O)[C@@H](CO)O[C@H]1O [compound of formula (I), N-acetyl-D-glucosamine]
[1]; in vivo and in vitro
  stabilization of liver lysosome membrane: able to effectively stabilize liver lysosome membrane
[1]; liver lysosome
  release of acidic phosphatase (ACP): decrease the release of acidic phosphatase
[2]
  relief of peri-anal symptoms: able to eliminate or relieve quickly the peri-anal uncomfortableness, pain, exudation, pruritus and the like
[3]
  resistance to Pseudomonas aeruginosa planting in intestines: able to effectively resist Pseudomonas aeruginosa in intestines
